Assay results as given in patent US20250352511A1 (CHINOOK THERAPEUTICS, INC., priority 2022, published 2025).
Like-named read-outs stand apart in the source and are kept apart here.

Tests used:
subjects with DKD = conditions: RADAR Phase 2b, cited from earlier work
patients with FSGS = experiment: Phase 2 open-label basket study, FSGS cohort: urine protein to creatinine ratio (UPCR); assay type: in vivo, human; conditions: 0.75 mg atrasentan daily; week 24 vs week 0; twenty patients with FSGS
From the text: Subjects will be enrolled in disease specific cohorts as follows: • Cohort 1: IgAN (with UPCR 0.5 to <1.[…]) • Cohort 2: FSGS • Cohort 2b: FSGS (dose escalation) • Cohort 3: Alport syndrome • Cohort 4: DKD • Cohort 5: FSGS (higher dose cohort) Subjects in Cohorts 2 and 5 (FSGS) include the following characteristics: • Biopsy-confirmed FSGS or documentation of a genetic mutation in a podocyte protein associated with FSGS. […] Urine Protein to Creatinine Ratio (UPCR) will be assessed. Assessment of proteinuria plays an important role in the diagnosis of kidney disease and in monitoring disease activity (Zhao, 2016). UPCR is widely used for proteinuria evaluation in clinical practice. UPCR will be measured using FMV urine sample and a 24-hour urine collection at timepoints. […] Twenty patients with FSGS were enrolled in the study if the inclusion and exclusion criteria of Example 1 were met.

[1] = 0.75 mg dose; DKD; PK-PD exposure-response model; cited from earlier work
[2] = test system: patients with diabetic kidney disease; conditions: cited from earlier work
[3] = daily dose 0.75 mg, dose-range finding studies and exposure-response analyses

SMILES: CCCCN(CCCC)C(=O)CN1C[C@H](c2ccc3c(c2)OCO3)[C@@H](C(=O)O)[C@@H]1c1ccc(OC)cc1 [Atrasentan, (2R,3R,4S)-4-(1,3-benzodioxol-5-yl)-1-[2-(dibutylamino)-2-oxoethyl]-2-(4-methoxyphenyl)pyrrolidine-3-carboxylic acid]
- fluid retention (body weight, edema incidence, treatment discontinuations) (subjects with DKD; 0.75 mg dose): only minimal evidence for fluid retention
- proteinuria reduction (subjects with DKD; 0.75 mg dose): 35%
- fluid retention related adverse events (subjects with DKD; 1.25 mg dose): greater fluid retention related adverse events including treatment discontinuation
- proteinuria reduction (subjects with DKD; 1.25 mg dose): 38%
- reduction in UPCR compared the baseline measurement (patients with FSGS): 38.3%
- Ctrough range [1]: 1.2 to 2.2 ng/mL
- UACR [2, 3]: marked reduction
- fluid retention [2, 3]: only modest fluid retention
- risk of renal events (doubling of serum creatinine or end-stage kidney disease) ([2]; patients with diabetic kidney disease): significantly reducing the risk of renal events
- most common adverse events associated with treatment ([2]; subjects with DKD): fluid retention, hemodilution, and vasodilation
